Assay results taken from patent US20150080337A1, “N-CYCLOALKYL-N-[(TRISUBSTITUTEDSILYLPHENYL)METHYLENE]-(THIO)CARBOXAMIDE DERIVATIVES” (BAYER CROPSCIENCE, priority 2012, published 2015).

Test system: Alternaria brassicae
Experiment: In vivo preventive test on Alternaria brassicae (leaf spot on radish)
Settings: 500 ppm of active ingredient; radish plants sprayed 24 hours before contamination; grading 6 days after contamination vs control plants
Experimental: (§1) The active ingredients tested are prepared by homogenization in a mixture of acetone/tween/DMSO, and then diluted with water to obtain the desired active material concentration.
Radish plants (“Pernod Clair” variety), sown in starter cups on a 50/50 peat soil pozzolana substrate and grown at 17° C., are treated at the cotyledon stage by spraying with the active ingredient prepared as described above. Plants, used as controls, are treated with the mixture of acetone/tween/DMSO/water not containing the active material.
After 24 hours, the plants are contaminated by spraying the cotyledons with an aqueous suspension of Alternaria brassicae spores (50 000 spores per mL). The spores are collected from a 15-day-old culture. The contaminated radish plants are incubated at 20° C. and at 100% relative humidity.
Grading (% of efficacy) is carried out 6 days after the contamination, in comparison with the control plants.
Under these conditions, good (at least 70%) to total protection is observed at a dose of 500 ppm of active ingredient with the following compounds from table D: […]

Structure (SMILES)	Efficacy [%]
Cn1nc(C(F)F)c(C(=S)N(Cc2ccccc2[Si](C)(C)c2ccc(Cl)cc2)C2CC2)c1F [I.8]	88
Cn1nc(C(F)F)c(C(=O)N(Cc2ccccc2[Si](C)(C)c2cccc3ccccc23)C2CC2)c1F [I.25]	80

Test system: Botrytis cinerea
Experiment: In vivo preventive test on Botrytis cinerea (grey mould)
Settings: 500 ppm of active ingredient; gherkin plants sprayed 24 hours before contamination; grading 4 to 5 days after contamination vs control plants
Experimental: (§2) The active ingredients tested are prepared by homogenization in a mixture of acetone/tween/DMSO and then diluted with water to obtain the desired active material concentration.
Gherkin plants (“Vert petit de Paris” variety), sown in starter cups on a 50/50 peat soil pozzolana substrate and grown at 24° C., are treated at the Z11 cotyledon stage by spraying with the active ingredient prepared as described above. Plants, used as controls, are treated with the mixture of acetone/tween/DMSO/water not containing the active material.
After 24 hours, the plants are contaminated by spraying the cotyledons with an aqueous suspension of cryopreserved Botrytis cinerea spores (50 000 spores per mL). The spores are suspended in a nutrient solution composed of 10 g/L of PDB, 50 g/L of D-Fructose, 2 g/L of NH4NO3 and 1 g/L of KH2PO4. The contaminated gherkin plants are incubated at 17° C. and at 90% relative humidity.
Grading (% of efficacy) is carried out 4 to 5 days after the contamination, in comparison with the control plants.
Under these conditions, good (at least 70%) is observed at a dose of 500 ppm of active ingredient with the following compound from table E: […]

Structure (SMILES)	Efficacy [%]
C[Si](C)(c1ccccc1CN(C(=O)c1ccsc1I)C1CC1)c1cccc2ccccc12 [I.29]	75

Test system: not listed separately
Experiment: log P by HPLC on reversed-phase column (C 18), EEC Directive 79/831 Annex V.A8
Format: physicochemical
Settings: Table 1, compounds of formula (I); HPLC C 18, 40° C., 0.1% aqueous formic acid and acetonitrile, gradient 10% to 90% acetonitrile
Experimental: In table 1, the log P values were determined in accordance with EEC Directive 79/831 Annex V.A8 by HPLC (High Performance Liquid Chromatography) on a reversed-phase column (C 18), using the method described below:
Temperature: 40° C.; Mobile phases: 0.1% aqueous formic acid and acetonitrile; linear gradient from 10% acetonitrile to 90% acetonitrile.
Calibration was carried out using unbranched alkan-2-ones (comprising 3 to 16 carbon atoms) with known log P values (determination of the log P values by the retention times using linear interpolation between two successive alkanones). lambda-max-values were determined using UV-spectra from 200 nm to 400 nm and the peak values of the chromatographic signals.
In table 2, M+H (Apcl+) and log P are defined as for table 1.

Structure (SMILES)	logP
Cn1nc(C(F)F)c(C(=S)N(Cc2ccccc2[Si](C)(C)c2ccc(Cl)cc2)C2CC2)c1F [I.8]	3.09
Cn1nc(C(F)F)c(C(=O)N(Cc2ccccc2[Si](C)(C)c2ccc(Oc3ccccc3)cc2)C2CC2)c1F [I.19]	5.68
Cn1cc(C(=O)N(Cc2ccccc2[Si](C)(C)c2ccc(Oc3ccccc3)cc2)C2CC2)c(C(F)F)n1 [I.20]	5.31
Cn1nc(C(F)F)c(C(=O)N(Cc2ccccc2[Si](C)(C)c2cccc3ccccc23)C2CC2)c1F [I.25]	5.19
C[Si](C)(c1ccccc1CN(C(=O)c1ccsc1I)C1CC1)c1cccc2ccccc12 [I.29]	5.84
Cn1cc(C(=O)N(Cc2ccccc2[Si](C)(C)c2cccs2)C2CC2)c(C(F)F)n1 [I.31]	4.24

Test system: Pyrenophora teres
Experiment: In vivo test on Pyrenophora teres (barley net blotch)
Settings: 500 ppm of active ingredient; barley plants sprayed 24 hours before contamination; grading 14 days after contamination vs control plants
Experimental: as §1
Barley plants (“Plaisant” variety), sown in starter cups on a 50/50 peat soil pozzolana substrate and grown at 22° C., are treated at the 1 leaf stage (10 cm height) by spraying with the active ingredient prepared as described above. Plants, used as controls, are treated with the mixture of acetone/tween/DMSO/water not containing the active material.
After 24 hours, the plants are contaminated by spraying the leaves with an aqueous suspension of Pyrenophora teres spores (12 000 spores per mL). The spores are collected from a 12-day-old culture. The contaminated barley plants are incubated for 48 hours at 20° C. and at 100% relative humidity, and then for 12 days at 20° C. at 70-80% relative humidity.
Grading (% of efficacy) is carried out 14 days after the contamination, in comparison with the control plants.
Under these conditions, good (at least 70%) to excellent (at least 90%) protection is observed at a dose of 500 ppm of active ingredient with the following compounds from table B: […]

Structure (SMILES)	Efficacy [%]
Cn1nc(C(F)F)c(C(=O)N(Cc2ccccc2[Si](C)(C)c2ccc(Oc3ccccc3)cc2)C2CC2)c1F [I.19]	97
Cn1cc(C(=O)N(Cc2ccccc2[Si](C)(C)c2ccc(Oc3ccccc3)cc2)C2CC2)c(C(F)F)n1 [I.20]	79

Test system: Puccinia recondita
Experiment: In vivo test on Puccinia recondita (brown rust)
Settings: 500 ppm of active ingredient; wheat plants sprayed 24 hours before contamination; grading 12 days after contamination vs control plants
Experimental: as §1
(§3) Wheat plants (“Scipion” variety), sown in starter cups on a 50/50 peat soil pozzolana substrate and grown at 22° C., are treated at the 1 leaf stage (10 cm height) by spraying with the active ingredient prepared as described above. Plants, used as controls, are treated with the mixture of acetone/tween/DMSO/water not containing the active material.
(§4) After 24 hours, the plants are contaminated by spraying the leaves with an aqueous suspension of Puccinia recondita spores (100 000 spores per mL). The spores are collected from an infected plant and are suspended in water containing 2.5 mL/L of Tween 80 at 10%. The contaminated wheat plants are incubated for 24 hours at 20° C. and at 100% relative humidity, and then for 10 days at 20° C. and at 70-80% relative humidity.
(§5) Grading (% of efficacy) is carried out 12 days after the contamination, in comparison with the control plants.
Under these conditions, good (at least 70%) to excellent (at least 90%) protection is observed at a dose of 500 ppm of active ingredient with the following compounds from table C: […]

Structure (SMILES)	Efficacy [%]
Cn1nc(C(F)F)c(C(=S)N(Cc2ccccc2[Si](C)(C)c2ccc(Cl)cc2)C2CC2)c1F [I.8]	88
Cn1nc(C(F)F)c(C(=O)N(Cc2ccccc2[Si](C)(C)c2ccc(Oc3ccccc3)cc2)C2CC2)c1F [I.19]	93
Cn1cc(C(=O)N(Cc2ccccc2[Si](C)(C)c2cccs2)C2CC2)c(C(F)F)n1 [I.31]	75

Test system: Sphaerotheca fuliginea
Experiment: In vivo test on Sphaerotheca fuliginea (cucurbits powdery mildew)
Settings: 500 ppm of active ingredient; gherkin plants sprayed 24 hours before contamination; grading 12 days after contamination vs control plants
Experimental: as §2
Gherkin plants (“Vert petit de Paris” variety), sown in starter cups on a 50/50 peat soil-pozzolana substrate and grown at 24° C., are treated at the Z11 cotyledon stage by spraying with the active ingredient prepared as described above. Plants, used as controls, are treated with the mixture of acetone/tween/DMSO/water not containing the active material.
After 24 hours, the plants are contaminated by spraying the cotyledons with an aqueous suspension of Sphaerotheca fuliginea spores (100 000 spores per mL). The spores are collected from infected plants. The contaminated gherkin plants are incubated at about 20° C. and at 70-80% relative humidity.
as §5
Under these conditions, good (at least 70%) to total protection is observed at a dose of 500 ppm of active ingredient with the following compounds from table A: […]

Structure (SMILES)	Efficacy [%]
Cn1nc(C(F)F)c(C(=S)N(Cc2ccccc2[Si](C)(C)c2ccc(Cl)cc2)C2CC2)c1F [I.8]	100
Cn1nc(C(F)F)c(C(=O)N(Cc2ccccc2[Si](C)(C)c2ccc(Oc3ccccc3)cc2)C2CC2)c1F [I.19]	100
Cn1cc(C(=O)N(Cc2ccccc2[Si](C)(C)c2ccc(Oc3ccccc3)cc2)C2CC2)c(C(F)F)n1 [I.20]	83
Cn1nc(C(F)F)c(C(=O)N(Cc2ccccc2[Si](C)(C)c2cccc3ccccc23)C2CC2)c1F [I.25]	100
Cn1cc(C(=O)N(Cc2ccccc2[Si](C)(C)c2cccs2)C2CC2)c(C(F)F)n1 [I.31]	100

Test system: Uromyces appendiculatus
Experiment: In vivo preventive test on Uromyces appendiculatus (bean rust)
Settings: 500 ppm of active ingredient; bean plants sprayed 24 hours before contamination; grading 11 days after contamination vs control plants
Experimental: as §1
Bean plants (“Saxa” variety), sown in starter cups on a 50/50 peat soil pozzolana substrate and grown at 24° C., are treated at the 2 leaf stage (9 cm height) by spraying with the active ingredient prepared as described above. Plants, used as controls, are treated with the mixture of acetone/tween/DMSO/water not containing the active material.
as §4, with “of Uromyces appendiculatus” for “of Puccinia recondita”, “spores (150” for “spores (100”, “from” for “from an”, “infected plants” for “infected plant”, “contaminated bean” for “contaminated wheat”
Grading (% of efficacy) is carried out 11 days after the contamination, in comparison with the control plants.
Under these conditions, good (at least 70%) to total protection is observed at a dose of 500 ppm of active ingredient with the following compounds from table G: […]

Structure (SMILES)	Efficacy [%]
Cn1nc(C(F)F)c(C(=S)N(Cc2ccccc2[Si](C)(C)c2ccc(Cl)cc2)C2CC2)c1F [I.8]	97
Cn1nc(C(F)F)c(C(=O)N(Cc2ccccc2[Si](C)(C)c2ccc(Oc3ccccc3)cc2)C2CC2)c1F [I.19]	96
Cn1cc(C(=O)N(Cc2ccccc2[Si](C)(C)c2ccc(Oc3ccccc3)cc2)C2CC2)c(C(F)F)n1 [I.20]	89
Cn1nc(C(F)F)c(C(=O)N(Cc2ccccc2[Si](C)(C)c2cccc3ccccc23)C2CC2)c1F [I.25]	86
Cn1cc(C(=O)N(Cc2ccccc2[Si](C)(C)c2cccs2)C2CC2)c(C(F)F)n1 [I.31]	96

Test system: Septoria tritici
Experiment: In vivo preventive test on Septoria tritici (wheat)
Settings: 500 ppm of active ingredient; wheat plants sprayed 24 hours before contamination; grading 24 days after contamination vs control plants
Experimental: as §1, §3
After 24 hours, the plants are contaminated by spraying the leaves with an aqueous suspension of cryopreserved Septoria tritici spores (500 000 spores per mL). The contaminated wheat plants are incubated for 72 hours at 18° C. and at 100% relative humidity, and then for 21 days at 90% relative humidity.
Grading (% of efficacy) is carried out 24 days after the contamination, in comparison with the control plants.
Under these conditions, good (at least 70%) to total protection is observed at a dose of 500 ppm of active ingredient with the following compounds from table F: […]

Structure (SMILES)	Efficacy [%]
Cn1nc(C(F)F)c(C(=S)N(Cc2ccccc2[Si](C)(C)c2ccc(Cl)cc2)C2CC2)c1F [I.8]	97
Cn1nc(C(F)F)c(C(=O)N(Cc2ccccc2[Si](C)(C)c2ccc(Oc3ccccc3)cc2)C2CC2)c1F [I.19]	100
Cn1cc(C(=O)N(Cc2ccccc2[Si](C)(C)c2ccc(Oc3ccccc3)cc2)C2CC2)c(C(F)F)n1 [I.20]	75
Cn1nc(C(F)F)c(C(=O)N(Cc2ccccc2[Si](C)(C)c2cccc3ccccc23)C2CC2)c1F [I.25]	100
Cn1cc(C(=O)N(Cc2ccccc2[Si](C)(C)c2cccs2)C2CC2)c(C(F)F)n1 [I.31]	96
